Data set [1] has as its system Human immunodeficiency virus 1. Briefly: Antiviral activity against HIV1 infected in human TZM-bl cells assessed as viral inhibition pre-incubated for 30 mins prior to infection measured after 48 hrs by. The format is functional, organism-based. The conditions noted are these: Human immunodeficiency virus 1, TZM-bl.
For a further data set, the system named is Trypanosoma cruzi. Briefly: Trypanocidal activity against nifurtimox-sensitive Trypanosoma cruzi Tulahuen CL2 infected in human MRC5 SV2 cells assessed as parasite growth inhibition after […] by beta-galactosidase assay. It is filed as functional, organism-based.
The subject of data set [2] is Trypanosoma brucei brucei. In words: Antitrypanocidal activity against suramin-sensitive Trypanosoma brucei brucei Squib427 assessed as reduction in parasite growth after 72 hrs. It is filed as functional, organism-based. As to conditions: Squib427, 72 h.
A further data set relates to Plasmodium falciparum. Briefly: Antiplasmodial activity against chloroquine-resistant Plasmodium falciparum K1 infected in human O positive erythrocyte assessed as reduction in parasitemia after 72 hrs. It is filed as functional, organism-based. The conditions noted are these: K1, 72 h.
For data set [3], the system named is Trypanosoma brucei rhodesiense. Briefly: Antitrypanocidal activity against suramin-sensitive Trypanosoma brucei rhodesiense STIB-900 assessed as reduction in parasite growth after 72 hrs. The format is functional, organism-based. As to conditions: STIB-900, 72 h.
Data set [4] is described as follows: Cytotoxicity against human TZM-bl cells assessed as cell viability after 48 hrs by WST1 assay. It is filed as cell-based.
In the next data set the test system is Leishmania infantum. In words: Antileishmanial activity against Leishmania infantum MHOM/MA (BE)/67 infected in primary peritoneal mouse macrophages assessed as reduction in parasite burdun. The format is functional, organism-based.
Data set [5] can be described thus: Cytotoxicity against human MRC5 SV2 cells assessed as reduction in cell growth after 72 hrs. The conditions noted are these: MRC5, 72 h. It is filed as cell-based.
The nature of data set [6]: Metabolic stability in mouse liver microsomes assessed as compound remaining after 15 mins by UPLC analysis. It is filed as ADME. The conditions noted are these: read-out: Stability.
A short description of data set [7]: Solubility of the compound in 10 mM PBS buffer solution at pH7.4 at 3.125 to 200 uM after 2 hrs. The format is physicochemical. The conditions noted are these: pH 7.4.
The nature of data set [8]: Metabolic stability in human liver microsomes assessed as compound remaining after 15 mins by UPLC analysis. It is filed as ADME. The conditions noted are these: read-out: Stability.
Data set [9] is described as follows: Metabolic stability in human plasma assessed as compound remaining after 1 hr. It is filed as ADME, cell-free. The conditions noted are these: read-out: Stability.
Data set [10] is described as follows: Stability of the compound in PBS buffer assessed as recovery at pH 7.4 measured after 24 hrs by UPLC analysis. It is filed as physicochemical. As to conditions: read-out: Drug recovery.
Data set [11] is described as follows: Metabolic stability in mouse plasma assessed as compound remaining after 1 hr. The format is ADME, cell-free. The conditions noted are these: read-out: Stability.
A short description of data set [12]: Octanol-phosphate buffer partition coefficient, log D of the compound at pH 7.4 after 2 hrs of shaking after 2 hrs. It is filed as physicochemical.
The subject of data set [13] is Trypanosoma brucei brucei. In words: Trypanocidal activity against suramin-sensitive Trypanosoma brucei brucei Squib427 infected in Swiss mouse assessed as mean survival time at 10 mg/kg first dose through orally and next four dosed administered intraperitoneally for 4 days (reference value: 7.2 days). The format is functional. The conditions noted are these: route oral.

Data set [14] relates to Trypanosoma brucei brucei. In words: Trypanocidal activity against suramin-sensitive Trypanosoma brucei brucei Squib427 infected in Swiss mouse assessed as survivors on day 14 post infection at 10 mg/kg first dose through orally and next four dosed administered intraperitoneally for 4 days. It is filed as functional, organism-based. More on the design: dose 10 mg/kg.
The subject of data set [15] is Trypanosoma brucei brucei. In words: Trypanocidal activity against suramin-sensitive Trypanosoma brucei brucei Squib427 infected in Swiss mouse assessed as reduction in parasitemia at 10 mg/kg first dose through orally and next four dosed administered intraperitoneally for 4 days. The format is functional. The conditions noted are these: Squib427, 96 h, route oral.

The source made the active and inactive calls. No cut-off for these calls is given here.

Regarding `NS(=O)(=O)c1ccc(Oc2ccc(NC(=O)N[C@H]3[C@@H]4COc5c(F)ccc(F)c5[C@@H]43)nc2)cc1`, in [1], the EC50 stood at 1 nM. Besides, the IC50 in the data set on Trypanosoma cruzi was greater than 64 µM; in [2], 32.1 µM; in the data set with Plasmodium falciparum, 29.5 µM; in data set [3], 38.5 µM; in the data set with Leishmania infantum, 32.5 µM. Besides, in data set [4], the CC50 at 48 h is greater than 100 µM.

Consider `N#Cc1ccc(NC(=O)N[C@@H]2[C@@H]3COc4c(F)ccc(F)c4[C@@H]32)nc1`, for which the EC50 in data set [1] was 1 nM. Further, the IC50 is greater than 64 µM in the data set with Trypanosoma cruzi; greater than 64 µM in data set [2]; greater than 64 µM in data set [5]; 64 µM with Plasmodium falciparum; greater than 64 µM in [3]; greater than 64 µM in the data set with Leishmania infantum.

With `CO[C@H]1O[C@@H]2O[C@@]3(C)CC[C@H]4[C@H](C)CC[C@@H]([C@H]1C)[C@@]24OO3`, the IC50 in the data set on Plasmodium falciparum is greater than 64 µM.

For the molecule `c1ccc(Nc2ccnc(Nc3ccccc3)n2)cc1`, in [1], the EC50 was greater than 10000 nM. Also, the IC50 was 4.45 µM in the data set on Trypanosoma cruzi; 7.27 µM in data set [2]; 13.2 µM in data set [5]; 21.8 µM with Plasmodium falciparum; 2.53 µM in [3]; 22.2 µM in the data set with Leishmania infantum.

Consider `O=C(Cn1ccnc1[N+](=O)[O-])NCc1ccccc1` [BENZNIDAZOLE], for which, in the data set on Trypanosoma cruzi, the half-inhibitory concentration (IC50) amounted to 2.56 µM.

In the case of `CCN(CC)CCCC(C)Nc1ccnc2cc(Cl)ccc12` (stereo unspecified) [CHLOROQUINE], in the data set with Plasmodium falciparum, the IC50 is greater than 64 µM.

Take `Cc1cc(C)c(Nc2ccnc(Nc3ccc(C#N)cc3)n2)c(C)c1` [DAPIVIRINE]: the EC50 in data set [1] came to 2 nM. For the same molecule, the IC50 with Trypanosoma cruzi is 1.25 µM; in data set [2] it was greater than 16 µM; in data set [5], greater than 64 µM; in the data set with Plasmodium falciparum it was 4.88 µM; in data set [3] it was 19.5 µM; in the data set on Leishmania infantum it was greater than 64 µM. Moreover, in [4], the CC50 at 48 h was determined as 2.47 µM.

In the case of `CC(C)Nc1cccnc1N1CCN(C(=O)c2cc3cc(NS(C)(=O)=O)ccc3[nH]2)CC1` [DELAVIRDINE], the EC50 in data set [1] is 55 nM. Moreover, the IC50 in the data set on Trypanosoma cruzi was greater than 64 µM; in [2] it was greater than 64 µM; in data set [5] it was greater than 64 µM; with Plasmodium falciparum, 64 µM; in [3], greater than 64 µM; in the data set with Leishmania infantum, greater than 64 µM. In addition, the CC50 at 48 h in [4] was greater than 50 µM.

In the case of `O=C1Nc2ccc(Cl)cc2[C@@](C#CC2CC2)(C(F)(F)F)O1` [EFAVIRENZ], the IC50 was 8.56 µM in the data set with Trypanosoma cruzi; 30.2 µM in data set [2]; 25.8 µM in [5]; 43.8 µM in the data set with Plasmodium falciparum; 19.6 µM in data set [3]; 7.4 µM in the data set on Leishmania infantum. Further, the CC50 at 48 h in [4] was greater than 50 µM.

Consider `Cc1cc(C#N)cc(C)c1Oc1nc(Nc2ccc(C#N)cc2)nc(N)c1Br` [ETRAVIRINE], for which the EC50 in [1] is 1 nM. In addition, the IC50 in the data set with Trypanosoma cruzi is greater than 64 µM; in data set [2] it was greater than 64 µM; in data set [5] it was greater than 64 µM; in the data set with Plasmodium falciparum, 64 µM; in data set [3] it was greater than 64 µM; with Leishmania infantum, 41.6 µM. In data set [4], the half-maximal cytotoxic concentration (CC50) at 48 h was greater than 25 µM.

In the case of `CCc1nn(CCO)c(CC)c1Oc1cc(C#N)cc(C#N)c1` [LERSIVIRINE], the EC50 in data set [1] was found to be 3 nM. Moreover, the IC50 in the data set on Trypanosoma cruzi was greater than 64 µM; in [2] it was greater than 64 µM; in the data set with Plasmodium falciparum, greater than 64 µM; in data set [3], 54.7 µM; in the data set with Leishmania infantum, greater than 64 µM. Moreover, the CC50 at 48 h in data set [4] is greater than 100 µM.

On to `Nc1nc(N)nc(Nc2ccc([As]3SCC(CO)S3)cc2)n1` (stereo unspecified) [MELARSOPROL], for which the remaining at […] in data set [6] came out at 72%; in [8], 84%. The solubility at 2 h in data set [7] stood at 25 µM. Moreover, the remaining at 1 h in data set [9] and in data set [11] was 100% throughout. The figures for the IC50 in [2], in data set [5] and in data set [3] were 0.03 µM, 7.4 µM and 0.02 µM, respectively. Also, in data set [10], the remaining at 24 h is 100%. In [12], the logD at 2 h turned out to be 4.51.

Regarding `CCCCCCCCCCCCCCCCOP(=O)([O-])OCC[N+](C)(C)C` [MILTEFOSINE], in the data set on Leishmania infantum, the IC50 was 6.17 µM.

In the case of `Cc1ccnc2c1NC(=O)c1cccnc1N2C1CC1` [NEVIRAPINE], the EC50 in [1] was 144 nM. Further, the IC50 is greater than 64 µM in the data set on Trypanosoma cruzi; greater than 64 µM in data set [2]; greater than 64 µM in data set [5]; 64 µM in the data set with Plasmodium falciparum; greater than 64 µM in data set [3]; greater than 64 µM with Leishmania infantum. For the same molecule, in [4], the CC50 at 48 h was greater than 50 µM.

For `CC1CS(=O)(=O)CCN1/N=C/c1ccc([N+](=O)[O-])o1` (stereo unspecified) [NIFURTIMOX], the IC50 in the data set on Trypanosoma cruzi worked out at 0.7 µM.

For `Cc1ccc(C(=O)Nc2ccc(S(=O)(=O)O)c3cc(S(=O)(=O)O)cc(S(=O)(=O)O)c23)cc1NC(=O)c1cccc(NC(=O)Nc2cccc(C(=O)Nc3cc(C(=O)Nc4ccc(S(=O)(=O)O)c5cc(S(=O)(=O)O)cc(S(=O)(=O)O)c45)ccc3C)c2)c1` [SURAMIN], the IC50 is 0.02 µM in [2], greater than 64 µM in data set [5] and 0.02 µM in [3]. Also, in data set [13], the MST was greater than 21 days. Also, the outcome in data set [14] was Active. Also, the inhibition in vivo at 10 mg/kg in [15] stood at 100%.

With `CC(C)=CCOc1cc(NC(=S)c2ccoc2C)ccc1Cl` [UC 781], in [1], the EC50 worked out at 3 nM. The IC50 with Trypanosoma cruzi is greater than 64 µM; in [2], greater than 64 µM; in data set [5], greater than 64 µM; in the data set on Plasmodium falciparum, 27.4 µM; in [3], 38.5 µM; in the data set on Leishmania infantum it was greater than 64 µM. In addition, the CC50 at 48 h in data set [4] is greater than 100 µM.

Values taken from ChEMBL document CHEMBL3352040, “From human immunodeficiency virus non-nucleoside reverse transcriptase inhibitors to potent and selective antitrypanosomal compounds” (Bioorg Med Chem, 2014).
